Patent US20240043557A1, “A PLATFORM TO OBTAIN MONOCLONAL ANTIBODIES DIRECTED AGAINST PROCESSED TUMOR-SPECIFIC ANTIGENS” (Mediterranea Theranostic srl, priority 2020, published 2024)

B1: murine ADAM10 (endogenous in MTE 4-14 cells) (protein)
chain: TTLAERNTCQLYIQTDHLFFKYYGTREAVIAQISSHVKAIDTIYQTTDFSGIRNISFMVKRIRINTTSDEKDPTNPFRFPNIGVEKFLELNSEQNHDDYCLAYVFTDRDFDDGVLGLAWVGAPSGSSGGICEKSKLYSDGKKKSLNTGIITVQNYGSHVPPKVSHITFAHEVGHNFGSPHDSGTECTPGESKNLGQKENGNYIMYARATSGDKLNNNKFSLCSIRNISQVLEKKRNNCFVESGQPICGNGMVEQGEECDCGYSDQCKDDCCFDANQPEGKKCKLKPGKQCSPSQGPCCTAQCAFKSKSEKCRDDSDCAKEGICNGFTALCPASDPKPNFTDCNRHTQVCINGQCAGSICEKYDLEECTCASSDGKDDKELCHVCCMKKMAPSTCASTGSLQWSKQFSGRTITLQPGSPCNDFRGYCDVFMRCRLVDADGPLARLKKAIFSPQLYENIAEWIVAHWWAVLLMGIALIMLMAGFIKICSVHTPSSNPKLPPPKPLPGTLKRRRPPQPIQQPPRQRPRESYQMGHMRR
B2: siRNAs targeting MMP9: control siRNA targeting murine MMP9 (NM_013599, nt 1780-1798), SEQ ID NO: 59/60 (nucleic acid, listed as Mus musculus)
chain 1: GATCCCCCCGCAGACCAAGAGGGTTTTTCAAGAGAAAACCCTCTTGGTCTGCGGTTTTTGGAAA
chain 2: AGCTTTTCCAAAAACCGCAGACCAAGAGGGTTTTCTCTTGAAAAACCCTCTTGGTCTGCGGGGG
B3: ADAM10 siRNA: siRNA targeting murine ADAM10 (NM_007399.3, nt 292-309), SEQ ID NO: 57/58, expressed from pSUPER (nucleic acid, listed as Mus musculus)
chain 1: GATCCCCAGACATTATGAAGGATTATTTCAAGAGAATAATCCTTCATAATGTCTTTTTTGGAAA
chain 2: AGCTTTTCCAAAAAAGACATTATGAAGGATTATTCTCTTGAAATAATCCTTCATAATGTCTGGG

Columns and labels:
[1] = test system: metastatic triple-negative breast cancer (TNBC); settings: patients with metastatic TNBC; cited from earlier work
[2] = molecular target: T1, ADAM10 (Mus musculus, UniProt O35598); experiment: Western blot of Trop-2 processing in MTE 4-14/Trop-2 transfectants upon ADAM10 inhibition; assay type: cell-based, murine; settings: for effect on Trop-2 processing: MTE 4-14/Trop-2 transfectants, WB; for minimum concentration found to be effective in inhibiting Trop-2 cleavage: concentration used, GM6001 24 hours, G1254023X two doses every 24 hours for 48 hours; for concentration found effective (up to): inhibition of Trop-2 cleavage
T1 construct: endogenous in cells; host or cells: MTE 4-14 (transformed murine thymus cells) transfected with Trop-2
T1 sequence (O35598 215-749): B1 chain
Experimental: ADAM 10 activity was inhibited in the MTE 4-14/Trop-2 transfectants by treatment with chemical inhibitors or mRNA silencing, and the effect on Trop-2 processing and on Trop-2-dependent cell growth was evaluated.
A. WB analysis following treatment with the broad-spectrum metalloprotease inhibitor GM6001 or with the specific ADAM10 inhibitor G1254023X or ADAM10 siRNA silencing, as indicated. […] T2-p: processed Trop-2; na: native form; pr: processed form.
Western blotting was performed as described (El Sewedy, Fomaro et al. 1998). Tumors from experimental animals were rapidly frozen upon surgical removal and stored at −80° C. Frozen samples were quickly thawed and homogenized with a Dounce homogenizer. Cleared homogenates of tumors and cultured cell lysates were analyzed by SDS-PAGE and transferred to nitrocellulose filters. Filters were hybridized with anti-human Trop-2 (affinity-purified polyclonal rabbit antiserum) or anti-ADAM10 antibodies.
Cells were treated with ADAM10 inhibitors for 24 hours at the minimum concentration found to be effective in inhibiting Trop-2 cleavage, then assayed as indicated. The GM6001 metalloprotease family inhibitor (Calbiochem) was dissolved in DMSO and used at 6.5-13 μM for 24 hours; up to 50 μM GM6001 were found effective. The G1254023X selective ADAM10 inhibitor, dissolved in DMSO, was kindly provided by Dr. A. Ludwig. Cells received two doses (10 μM) every 24 hours for 48 hours; up to 20 μM G1254023X were found effective. Control cells received vehicle alone.
(§1) Complementary strategies were utilized for siRNA design. Briefly, Tuschl′ criteria were applied, i.e. position in the mRNA, GC content, base composition and flanking sequences (Elbashir, Harborth et al. 2001). Invitrogen (maidesigner.invitrogen.com/maiexpress/) provides a proprietary algorithm that performs a statistical analysis of the target sequence, based on sequence composition, nucleotide content and thermodynamic properties, and compares candidates with validated siRNA sequences. The Whitehead Institute web site (jura.wi.mit.edu/bioc/siRNAext/) combines Tuschl′ criteria with predictions of binding energies for both sense and antisense siRNAs and with BLAST filtering of cross-hybridizing sequences. The Sonnhammer procedure (sonnhammer.cgb.ki.se/siSearch/) performs data mining (siSearch) on validated siRNA databanks, using motif rules and energy parameters. siRNA were synthesized that were identified by more than one method or considered optimal by any of the procedures above. Annealed oligos were subcloned into the pSUPER vector, kindly provided by Dr. R. Bernard (Brummelkamp, Bernards et al. 2002), under the control of the RNA polymerase III H1 gene promoter. siRNA expression constructs were transiently transfected MTE 4-14 transfectants, and cell growth was measured. siRNA-targeted transcript levels were quantified by real-time PCR. Negative control siRNAs directed towards irrelevant targets were used; these were chosen after extensive testing for lack of off-target influence on cell growth.

[3] = molecular target: T2, Trop-2 (wild-type human Trop-2, NCBI accession number NP_002344.2)
T2 chain: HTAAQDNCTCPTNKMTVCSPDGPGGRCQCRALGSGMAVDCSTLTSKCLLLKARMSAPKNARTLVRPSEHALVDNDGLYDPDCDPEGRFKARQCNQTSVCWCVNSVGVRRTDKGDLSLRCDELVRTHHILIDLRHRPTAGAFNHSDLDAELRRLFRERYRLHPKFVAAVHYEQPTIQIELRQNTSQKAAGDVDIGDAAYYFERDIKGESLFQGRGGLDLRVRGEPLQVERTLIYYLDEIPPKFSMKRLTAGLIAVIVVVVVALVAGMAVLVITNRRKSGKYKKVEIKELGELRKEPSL

[4] = test system: MTE 4-14 cells; experiment: In vitro growth of MTE 4-14 transfectants upon siRNA-mediated inhibition; assay type: cell-based, murine
Experimental: C. In vitro growth curves of MTE 4-14 cells transfected with the empty vector, wtTrop-2 or R87A-T88A Trop-2 upon ADAM10 (upper graphs, black,), MMP9 (lower graphs, black,) or control (human CD133, gray), siRNA-mediated inhibition. Bars: SEM. The p value for the only significant difference (ANOVA analysis) is indicated. Stars indicate post-hoc Bonferroni's t test p values (*≤0.05, **≤0.001).
Cell transfectants were seeded at 1.5−3.0×10^3 cells/well in 96-well plates (five replica wells per data point). Cell numbers were quantified by staining with crystal violet. Cell numbers were normalized against a standard reference curve of two-fold serially diluted cell samples.
as §1, with “Negative control siRNAs directed towards irrelevant targets were used; these were chosen after extensive testing for lack of off-target influence on cell growth.” left out

Molecule | effect on Trop-2 processing [2] | minimum concentration found to be effective in inhibiting Trop-2 cleavage [2] | concentration found effective (up to) [2] | further results
Sacituzumab govitecan-hziy | – | – | – | efficacy in patients [1]: effective
CNC(=O)[C@H](Cc1c[nH]c2ccccc12)NC(=O)[C@@H](CC(=O)NO)CC(C)C [GM6001] | reduction in Trop-2 processing | 6.5 to 13 µM | up to 50 μM | –
CNC(=O)[C@@H](NC(=O)[C@H](CCCc1ccccc1)[C@H](C)N(O)C=O)C(C)(C)C [G1254023X] | reduction in Trop-2 processing | 10 µM | up to 20 μM | –
B1 | – | – | – | Trop-2 processing (Western blot) after ADAM10 gene expression silencing by specific siRNAs [3]: Trop-2 processing was virtually abolished following ADAM10 silencing
B2 | – | – | – | effect on cell proliferation ([4]; MTE 4-14 transfectants, siRNA targeting MMP9): no effect on cell proliferation
B3 | inhibited Trop-2 processing | – | – | effect on in vitro growth of R87A-T88A or empty vector transfectants ([4]; MTE 4-14 R87A-T88A or empty vector transfectants): no effect; effect on in vitro growth of wtTrop-2 transfectants ([4]; MTE 4-14 wtTrop-2 transfectants): overrides Trop-2 dependent growth stimulus
